Km data for two molecules are collected here from paper PMC3850452, “Glycolic acid production in the engineered yeasts Saccharomyces cerevisiae and Kluyveromyces lactis” (Microbial Cell Factories, 2013).

In data set [1] the target is T1, GLYR1 (Arabidopsis thaliana, UniProt Q9LSV0).
T1 construct: full-length gene codon optimised for yeast, TPI1 promoter multicopy plasmid (p2159/pYX212), expressed in S. cerevisiae; crude cell extract, no tag told
T1 sequence (Q9LSV0 1-289): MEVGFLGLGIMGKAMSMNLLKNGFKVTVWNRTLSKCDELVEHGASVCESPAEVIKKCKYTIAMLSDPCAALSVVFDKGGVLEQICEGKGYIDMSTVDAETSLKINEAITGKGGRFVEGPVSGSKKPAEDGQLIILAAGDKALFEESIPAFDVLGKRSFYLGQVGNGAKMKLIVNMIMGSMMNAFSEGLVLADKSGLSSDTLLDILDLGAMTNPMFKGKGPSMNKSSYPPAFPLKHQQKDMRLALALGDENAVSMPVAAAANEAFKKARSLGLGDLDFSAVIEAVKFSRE
Put plainly: NADPH consumption at […] nm, Michaelis-Menten fit. The class given is biochemical. The following applies: crude extract of overexpressing yeast; 200 μM NADPH; 50 mM sodium phosphate pH 7; 30 °C.

Substrate in data set [2]: O=CC(=O)O
Put plainly: cells, lysate or membranes. The data set is classed as biochemical, Saccharomyces cerevisiae. The following applies: crude extract of overexpressing yeast, 200 μM NADPH, 50 mM sodium phosphate pH 7, 30 °C.

For `O=CC(=O)O` [glyoxylic acid], in data set [1], the Km was determined as 38.8 µM.

B1: Gor1p (Saccharomyces cerevisiae S288C) (protein)
chain: MSKKPIVLKLGKDAFGDQAWGELEKIADVITIPESTTREQFLREVKDPQNKLSQVQVITRTARSVKNTGRFDEELALALPSSVVAVCHTGAGYDQIDVEPFKKRHIQVANVPDLVSNATADTHVFLLLGALRNFGIGNRRLIEGNWPEAGPACGSPFGYDPEGKTVGILGLGRIGRCILERLKPFGFENFIYHNRHQLPSEEEHGCEYVGFEEFLKRSDIVSVNVPLNHNTHHLINAETIEKMKDGVVIVNTARGAVIDEQAMTDALRSGKIRSAGLDVFEYEPKISKELLSMSQVLGLPHMGTHSVETRKKMEELVVENAKNVILTGKVLTIVPELQNEDWPNESKPLV
notes: endogenous gene overexpressed from multicopy plasmid in S. cerevisiae; crude cell extract, no tag told
Turning to B1, the Km in data set [2] came out at 1900 µM.

Broadly, the Km is the concentration of substrate that gives half-maximal velocity.
